Results taken from US11759461B2, “Small molecule inhibitors of cancer stem cells and mesenchymal cancer types” (The Scripps Research Institute, priority 2017, dated 2023).

Key:
FOXC2-HMLER cells = experiment: Confocal imaging of thymidine synced FOXC2-HMLER cells at metaphase; type: cell-based, human
Source text: Because Compound 1 induces a hyper-phosphorylated VIM phenotype, we sought to determine if Compound 1's engagement of VIM might interfere at an alternative stage of mitosis. We therefore performed time course confocal imaging studies of Compound 1 treated FOXC2-HMLER cells after their release from thymidine blocking-based cell cycle synchronization.
Compound 1 treatment also disrupted the ability of β-tubulin to faithfully form the fine spindle microtubules of the mitotic spindle, instead resulting in a compressed phenotype with radiating projections connecting unaligned chromosomes. To assess the uniqueness of this phenotype, we evaluated the metaphase phenotypes of other chemical inhibitors which have shown to alter mitotic progression. These included inhibitors of centromere-associated protein E (CENP-E, also called kinesin-7, GSK92395), kinesin spindle protein (KSP, also called Eg5, Ispinesib), polo like kinases (PLK1/2/3, BI2536), and aurora kinases (AURKA/B/C, VX-680).

VIM = target: T1, VIM (Homo sapiens, UniProt P08670); experiment: Western blotting / immunofluorescence of VIM protein status in FOXC2-HMLER cells; type: cell-based
T1 construct: endogenous in cells; host or cells: FOXC2-HMLER
T1 sequence (P08670 whole entry): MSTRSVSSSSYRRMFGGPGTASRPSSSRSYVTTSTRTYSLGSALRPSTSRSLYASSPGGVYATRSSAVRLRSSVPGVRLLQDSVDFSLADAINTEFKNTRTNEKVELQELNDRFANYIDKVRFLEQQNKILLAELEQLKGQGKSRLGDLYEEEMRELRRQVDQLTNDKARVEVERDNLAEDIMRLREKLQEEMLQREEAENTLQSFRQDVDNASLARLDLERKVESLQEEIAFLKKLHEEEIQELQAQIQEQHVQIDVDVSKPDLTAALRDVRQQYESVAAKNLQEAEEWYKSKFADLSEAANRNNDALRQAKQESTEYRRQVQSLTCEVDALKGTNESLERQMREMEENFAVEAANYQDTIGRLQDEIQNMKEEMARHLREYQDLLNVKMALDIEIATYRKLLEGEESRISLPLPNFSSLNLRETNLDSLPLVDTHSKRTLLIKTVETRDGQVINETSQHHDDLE
Protocol: Western blotting was performed essentially as described previously (M. J. Bollong et al. ACS Chem. Biol. 10 (2015) 2193-2198). Cells were collected by brief trypsinization and centrifugation at 500 g for 5 minutes. Cells were lysed by the addition of RIPA buffer with protease and phosphatase inhibitors (Roche). Lysates were incubated on ice for 30 minutes before eliminating insoluble protein content by centrifugation at 12,000 g for 5 minutes at 4° C. Protein concentrations were determined from absorbance values obtained by a Nanodrop instrument. Equal amounts of protein were then mixed with 2× loading buffer (100 mM TRIS-HCl, 1% SDS, 10% glycerol, 0.1% bromophenol blue 10%-mercaptoethanol) and exposed to 95° C. for 5 minutes. Protein was separated by SDS-PAGE using 4-12% Bis-Tris Gels (Invitrogen) and then transferred to PVDF membranes (Invitrogen) using semi-dry transfer. Membranes were blocked for 1 hour at room temperature in 5% non-fat dry milk in TBST (Tris buffered saline with 0.1% Tween 20). Membranes were incubated overnight with primary antibodies in blocking buffer overnight at the dilutions ranging from 1:500 to 1:2000. After 3 washes with TBST, membranes were then exposed to HRP-conjugated secondary antibodies (1:5000 in blocking buffer, Sigma) for one hour followed by one hour of additional washing with TBST. Relative protein content was visualized using film and SuperSignal West Dura Substrate. For VIM degradation blots, 20-60 μg of protein content was loaded per gel lane and the anti-VIM antibody V9 (ab8069) was used to blot for VIM protein content. Phospho-protein blots were performed as above with the exception that primary antibodies were incubated in 5% bovine serum albumin in TBST instead of milk.
We performed Western blotting analysis of FOXC2-HMLER cells treated for 24 hours with Compound 1 with commercially available antibodies targeting specific phosphorylated VIM species (P-S39, P-S56, P-S83).
In contrast, only a small fraction of cells undergoing mitosis stained positive for P-S56-VIM in DMSO-treated controls, consistent with previous reports identifying phosphorylation at S56 as a modification catalyzed by cyclin dependent kinase 1 (CDK1; FIG. 6) (T. Yamaguchi, T. et al., J. Cell Biol. 171 (2005) 431-436.

[1] = FOXC2-HMLER cells, 24 hours, 500 nM, Western blotting
[2] = FOXC2-HMLER cells, Western blotting

P-S39- and P-S83-VIM protein content (VIM; [1]): modest increase
steady state levels of P-S56-VIM (VIM; [1]): marked increase
dibromobimane-crosslinked dimeric VIM protein content (VIM; [2]): dramatically reduced
lower molecular weight VIM degradation products (VIM; [2]): dose-dependent accumulation
P-S56-VIM positive FOXC2-HMLER cells (VIM; immunofluorescent staining): concentration dependent increase
SMILES: Clc1cccc(N2CCN(c3cnnc4c(Cl)cccc34)CC2)c1 [Compound 1, 8-chloro-4-(4-(3-chlorophenyl)piperazin-1-yl)cinnoline]
VIM filamentous structure at metaphase (FOXC2-HMLER cells): collapsed VIM filamentous structure
chromosome alignment to the metaphase plate (FOXC2-HMLER cells): inhibited the ability of chromosomes to align to the metaphase plate
